Data set [1] can be described thus: Metabolic stability in human liver microsomes assessed as half life at 1 uM measured up to 60 mins in presence of NADPH by HPLC-MS/MS analysis. The format is ADME, Microsome. For orientation: Liver microsomes are a subcellular fraction often used to study metabolism.
For data set [2], the system named is U2OS. Description: Antiproliferative activity against human U2OS cells assessed as cell growth inhibition incubated for 72 hrs by Cell titre Glo-luminiscence cell viability assay. The format is functional, cell-based.
The nature of data set [3]: Cytotoxicity against human HFL1 cells assessed as cell growth inhibition incubated for 72 hrs by Cell titre Glo-luminiscence cell viability assay. The format is toxicity, cell-based.
For data set [4], the target named is T1, Bromodomain-containing protein 3 (Homo sapiens, UniProt Q15059). The data set is described as follows: Inhibition of C-terminal His6-tagged BRD3 BD2 (unknown origin) using H-YSGRGK(Ac)GGK(Ac)GLGK(Ac)-GGAK(Ac)RHRK-Biotin-OH as substrate incubated for 1 hrs by HTRF assay. (Time-resolved FRET reads energy transfer from a long-lived donor to a nearby acceptor.)

Data set [5] can be described thus: Metabolic stability in rat liver microsomes assessed as intrinsic clearance at 1 uM measured up to 60 mins in presence of NADPH by HPLC-MS/MS analysis. The format is ADME, Microsome. Particulars: 1 h.
Data set [6] has as its target T2, Bromodomain-containing protein 2 (Homo sapiens, UniProt P25440). Description: Binding affinity to His6-fused BRD2 BD2 (unknown origin) assessed as dissociation constant in PBS incubated for 1 hrs by biolayer interferometry analysis. (In general: Biolayer interferometry detects binding as a change in optical thickness at a sensor tip.)
A short description of data set [7]: Metabolic stability in rat liver microsomes assessed as half life at 1 uM measured up to 60 mins in presence of NADPH by HPLC-MS/MS analysis. The format is ADME, Microsome.
In data set [8] the test system is Kasumi 1. The data set is described as follows: Antiproliferative activity against human Kasumi 1 cells assessed as cell growth inhibition incubated for 72 hrs by Cell titre Glo-luminiscence cell viability assay. The format is functional, cell-based. Particulars: Kasumi 1, 72 h.
Data set [9] has as its system HT-29. Description: Antiproliferative activity against human HT-29 cells assessed as cell growth inhibition incubated for 120 hrs by Cell titre Glo-luminiscence cell viability assay. The format is functional, cell-based. Particulars: HT-29, 120 h.
The test system of data set [10] is CWR22R. Description: Antiproliferative activity against human 22Rv1 cells assessed as cell growth inhibition incubated for 72 hrs by Cell titre Glo-luminiscence cell viability assay. The format is functional, cell-based. Particulars: 22Rv1, 72 h.
Data set [11] can be described thus: Metabolic stability in human liver microsomes assessed as intrinsic clearance at 1 uM measured up to 60 mins in presence of NADPH by HPLC-MS/MS analysis. The format is ADME, Microsome. As to conditions: 1 h.
The subject of data set [12] is DU-145. The data set is described as follows: Antiproliferative activity against AR-negative human DU-145 cells assessed as cell growth inhibition incubated for 72 hrs by Cell titre Glo-luminiscence cell viability assay. The format is functional, cell-based. Particulars: DU-145, 72 h.
Data set [13] has as its system MCF7. Description: Antiproliferative activity against human MCF7 cells assessed as cell growth inhibition incubated for 96 hrs by Cell titre Glo-luminiscence cell viability assay. The format is functional, cell-based. As to conditions: MCF7, 96 h.
Data set [14] deals with THP-1. Description: Antiproliferative activity against human THP-1 cells assessed as cell growth inhibition incubated for 72 hrs by Cell titre Glo-luminiscence cell viability assay. It is filed as functional, cell-based. As to conditions: THP-1, 72 h.
Data set [15] relates to MDA-MB-231. Description: Antiproliferative activity against human MDA-MB-231 cells assessed as cell growth inhibition incubated for 96 hrs by Cell titre Glo-luminiscence cell viability assay. It is filed as functional, cell-based. As to conditions: MDA-MB-231, 96 h.
For data set [16], the system named is MOLM-13. Description: Antiproliferative activity against human MOLM-13 cells assessed as cell growth inhibition incubated for 72 hrs by Cell titre Glo-luminiscence cell viability assay. It is filed as functional, cell-based. Particulars: MOLM-13, 72 h.
The target in data set [17] is T2, Bromodomain-containing protein 2. The data set is described as follows: Binding affinity to His6-fused BRD2 BD1 (unknown origin) assessed as dissociation constant in PBS incubated for 1 hrs by biolayer interferometry analysis.
Data set [18] can be described thus: Metabolic stability in rat hepatocytes assessed as hepatic clearance at 1 uM measured up to 60 mins in presence of NADPH by HPLC-MS/MS analysis. It is filed as ADME, cell-based, Hepatocyte.
Data set [19] relates to U-937. Description: Antiproliferative activity against human U-937 cells assessed as cell growth inhibition incubated for 72 hrs by Cell titre Glo-luminiscence cell viability assay. It is filed as functional, cell-based. Particulars: U-937, 72 h.
Data set [20] has as its system A549. The data set is described as follows: Antiproliferative activity against human A549 cells assessed as cell growth inhibition incubated for 72 hrs by Cell titre Glo-luminiscence cell viability assay. It is filed as functional, cell-based. As to conditions: A549, 72 h.
The nature of data set [21]: Metabolic stability in human hepatocytes assessed as hepatic clearance at 1 uM measured up to 60 mins in presence of NADPH by HPLC-MS/MS analysis. It is filed as ADME, cell-based, Hepatocyte.
In data set [22] the target is T1, Bromodomain-containing protein 3. The data set is described as follows: Binding affinity to His6-fused human BRD3 BD1 assessed as dissociation constant in PBS incubated for 1 hrs by biolayer interferometry analysis.
Data set [23] deals with BXPC-3. Description: Antiproliferative activity against human BxPC-3 cells assessed as cell growth inhibition incubated for 72 hrs by Cell titre Glo-luminiscence cell viability assay. It is filed as functional, cell-based. Particulars: BXPC-3, 72 h.
Data set [24] deals with MV4-11. Description: Antiproliferative activity against human MV4-11 cells assessed as cell growth inhibition incubated for 120 hrs by Cell titre Glo-luminiscence cell viability assay. The format is functional, cell-based.
The target in data set [25] is Bromodomain testis-specific protein (Homo sapiens, UniProt Q58F21). The data set is described as follows: Binding affinity to His6-fused BRDT BD2 (unknown origin) assessed as dissociation constant in PBS incubated for 1 hrs by biolayer interferometry analysis.
The subject of data set [26] is HepG2. Description: Antiproliferative activity against human HepG2 cells assessed as cell growth inhibition incubated for 72 hrs by Cell titre Glo-luminiscence cell viability assay. The format is functional, cell-based. As to conditions: HepG2, 72 h.
Data set [27] has as its target T3, Bromodomain-containing protein 4 (Homo sapiens, UniProt O60885). Description: Binding affinity to His6-fused BRD4 BD1 (unknown origin) assessed as dissociation constant in PBS incubated for 1 hrs by biolayer interferometry analysis.
Data set [28] addresses T3, Bromodomain-containing protein 4. The data set is described as follows: Binding affinity to His6-fused BRD4 BD2 (unknown origin) assessed as dissociation constant in PBS incubated for 1 hrs by biolayer interferometry analysis.

pIC50, pKd: −log10 of the molar value.

T2 sequence (P25440 whole entry, the tested form may be a part): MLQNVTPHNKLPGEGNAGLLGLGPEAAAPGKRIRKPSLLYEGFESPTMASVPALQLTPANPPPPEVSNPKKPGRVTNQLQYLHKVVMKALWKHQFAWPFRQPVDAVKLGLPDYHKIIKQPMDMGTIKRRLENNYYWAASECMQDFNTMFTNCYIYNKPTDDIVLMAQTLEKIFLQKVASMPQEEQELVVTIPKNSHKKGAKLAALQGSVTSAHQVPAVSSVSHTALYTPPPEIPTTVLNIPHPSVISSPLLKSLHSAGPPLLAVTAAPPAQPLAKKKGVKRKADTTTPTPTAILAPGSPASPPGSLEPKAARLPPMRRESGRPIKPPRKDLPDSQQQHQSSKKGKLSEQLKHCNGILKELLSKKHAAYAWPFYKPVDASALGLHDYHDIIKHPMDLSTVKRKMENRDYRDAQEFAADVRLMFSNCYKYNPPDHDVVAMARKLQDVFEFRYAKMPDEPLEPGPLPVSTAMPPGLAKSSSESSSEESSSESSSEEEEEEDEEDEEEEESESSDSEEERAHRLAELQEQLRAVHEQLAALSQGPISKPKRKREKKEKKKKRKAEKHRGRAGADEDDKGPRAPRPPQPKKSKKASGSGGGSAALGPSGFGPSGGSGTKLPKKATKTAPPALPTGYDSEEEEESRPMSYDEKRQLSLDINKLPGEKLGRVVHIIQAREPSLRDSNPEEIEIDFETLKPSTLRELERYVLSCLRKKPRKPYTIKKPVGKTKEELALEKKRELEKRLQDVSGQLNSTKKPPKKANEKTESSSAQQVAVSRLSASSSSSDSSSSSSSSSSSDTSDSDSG
T1 sequence (Q15059 whole entry): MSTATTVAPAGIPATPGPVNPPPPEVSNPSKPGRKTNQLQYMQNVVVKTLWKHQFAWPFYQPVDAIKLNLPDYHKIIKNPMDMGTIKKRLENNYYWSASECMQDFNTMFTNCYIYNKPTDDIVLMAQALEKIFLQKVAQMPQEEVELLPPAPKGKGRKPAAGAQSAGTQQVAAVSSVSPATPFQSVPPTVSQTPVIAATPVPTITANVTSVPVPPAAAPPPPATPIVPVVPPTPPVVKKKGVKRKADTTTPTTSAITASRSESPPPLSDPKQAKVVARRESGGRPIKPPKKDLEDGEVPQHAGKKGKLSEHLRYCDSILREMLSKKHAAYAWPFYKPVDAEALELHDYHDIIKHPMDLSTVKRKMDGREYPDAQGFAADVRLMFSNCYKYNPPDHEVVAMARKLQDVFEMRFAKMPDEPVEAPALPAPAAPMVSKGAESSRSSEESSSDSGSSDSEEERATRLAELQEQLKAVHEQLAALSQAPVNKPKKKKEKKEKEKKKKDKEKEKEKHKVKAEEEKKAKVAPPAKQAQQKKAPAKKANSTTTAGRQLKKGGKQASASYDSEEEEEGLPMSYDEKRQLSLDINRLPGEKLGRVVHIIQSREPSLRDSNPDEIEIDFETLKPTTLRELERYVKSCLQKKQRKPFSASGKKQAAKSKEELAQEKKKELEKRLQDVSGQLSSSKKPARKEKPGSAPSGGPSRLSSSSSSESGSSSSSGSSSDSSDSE

Consider `Cc1cc(F)cc(C)c1Oc1ccc(C(C)(C)O)cc1-c1cn(C)c(=O)c2cc(-c3cnc(C4CCCC4)[nH]3)oc12`, for which the half-life at 1 µM stood at 15.2 min in data set [1] and 58.3 min in [7]. Besides, the pIC50 in data set [2] was 6.00; in [4], 8.27; in data set [8], 6.33; in data set [9], 6.52; in data set [10], 6.63; in data set [12] it was 6.00. Also, the pIC50 is 6.00 in data set [13]; 5.89 in [14]; 6.00 in data set [15]; 6.59 in data set [16]; 6.00 in data set [19]; 6.00 in data set [20]. For the same compound, the negative logarithm of the IC50 (pIC50) is 6.00 in data set [23]; 9.26 in [24] (Homo sapiens, MV4-11, 120 h); 9.26 in data set [24] (mv4-11); 6.00 in data set [26]. For the same compound, the 50% inhibitory concentration (IC50) at 72 h in data set [3] stood at 4600 nM. Besides, the CLH in [5] was determined as 0.043 mL/min/g; in [11], 0.115 mL/min/g; in data set [18] (1 h, 1 µM), 0.043 mL/min/g; in data set [21] (1 h, 1 µM), 0.115 mL/min/g. Moreover, the negative logarithm of the Kd (pKd) in data set [6] is 7.63; in data set [17], 5.92; in [22] it was 5.88; in data set [25] it was 7.41. In addition, the CLhep predicted at 1 µM in data set [18] is 17.9 mL/min/kg; in data set [21], 17.5 mL/min/kg.
Consider `Cc1cc(F)cc(C)c1Oc1ccc(C(C)(C)O)cc1-c1cn(C)c(=O)c2cc(-c3cnc(C4CCCCC4)[nH]3)oc12`, for which the negative-log IC50 (pIC50) in data set [4] is 7.89. Also, the negative logarithm of the Kd (pKd) in [6] was 6.90; in data set [27] it was 5.30; in [17] it was 5.97; in [28], 7.35; in data set [22] it was 5.01; in data set [25], 6.71.

As usually defined, the half-life is how long it takes for the measured level to halve. Usually pIC50 stands for −log10 of the IC50, conventionally taken in molar units. The term IC50 denotes the concentration that inhibits the measured activity by half. In general, pKd refers to the Kd on a negative log10 scale, so that one unit is a factor of ten.

The values are drawn from ChEMBL document CHEMBL5154816, “Structure-Based Discovery and Optimization of Furo[3,2-c]pyridin-4(5H)-one Derivatives as Potent and Second Bromodomain (BD2)-Selective Bromo and Extra Terminal Domain (BET) Inhibitors” (J Med Chem, 2022).
